Experimental data taken from patent US20250250545A1, “MSCS AND EXTRACELLULAR VESICLES” (EXOSTEM BIOTEC LTD., priority 2021, published 2025).

Test system: AD-MSCs
Assay: MyoD reporter (luciferase) in AD-MSCs, myogenic differentiation
Assay type: cell-based, human
Conditions: 10^8 EVs per ml, with or without IGF, HGF, PDGF, versus untreated control
Description: The effects of muscle cell derived extracellular vesicles (EVs) on the myogenic differentiation of MSCs was analyzed using a myoD reporter tagged to luciferase. Human satellite cells, myotubes and fibroblasts were grown in culture and EVs were isolated from each. MSCs were isolated from adipose tissue (AD-MSCs) and were transfected with the MyoD reporter. The cells grown in culture were treated with EVs (10^8/ml) for 5 days and the luciferase activity was determined. […] Thus, the vesicles from these two cell types are effective at inducing myogenic differentiation.
Next, EVs were compared to the use of growth factors and the effect of combining EVs with growth factors on myogenic differentiation was tested. The same MyoD reporter was employed and MSCs were cultured with 10^8 EVs (from satellite cells or fibroblasts) per ml of culture media. A no EV control was also performed. The EVs were also added in the presence of three different growth factors, IGF, HGF and PDGF or in the combined presence of all three growth factors. […]
Finally, human primary myotubes were growth in culture and EVs and membrane-bound vesicles (MBVs) were harvested every 3 days. […] The vesicles were added to the culture of MSCs (adipose derived, AD; or chorionic placenta derived, CH) at a concentration of 10^8 per ml of culture and myogenic differentiation was again monitored with a MyoD reporter. […]

| Substance | MyoD reporter activity |
| --- | --- |
| PDGF | less than a doubling of reporter activity |
| HGF: hepatocyte growth factor | less than a doubling of reporter activity |
